Columns and labels:
[1] = molar heat capacity at constant pressure; conditions: Liquid, Flow calorimetry
[2] = molar heat capacity at constant pressure; xn = mol fraction of the nth substance listed; conditions: 313.15 K, Liquid, Flow calorimetry

CCCCCCC [heptane]
molar heat capacity at constant pressure [J/K/mol], [1]
Conditions	100 kPa	5000 kPa	10000 kPa	15000 kPa	20000 kPa
273.15 K	216.2	213.1	210.9	208.1	207.2
293.15 K	224.1	223	218.2	216.8	214.4
313.15 K	233.8	230.3	226.2	223.1	221.6
333.15 K	241.9	238.7	235	232	229.3

CCCCCCC [heptane] + CCO
molar heat capacity at constant pressure [J/K/mol], [2]
Conditions	x1 = 0.1	x1 = 0.2001	x1 = 0.3	x1 = 0.4001	x1 = 0.5001	x1 = 0.6	x1 = 0.6999	x1 = 0.7999	x1 = 0.9	x1 = 1
100 kPa	134.2	149.4	163.6	176.8	190.9	202.9	215.3	224.9	234.8	233.8
5000 kPa	132.5	147.1	160.8	174.2	187.6	200	211.9	221.4	230.4	230.3
10000 kPa	130.7	146.1	158.6	171.6	185	196.7	209	218.7	226.9	226.2
15000 kPa	129.5	143.6	156.7	169.4	182.5	194.8	205.9	215.9	223.8	223.1
20000 kPa	128.4	142.4	155.3	168.3	180.9	193.1	204	213.3	222.6	221.6

CCO [ethanol]
molar heat capacity at constant pressure [J/K/mol], [1]
Conditions	100 kPa	5000 kPa	10000 kPa	15000 kPa	20000 kPa
273.15 K	103.5	103.1	102.1	101.7	100.7
293.15 K	111.2	110.2	109	108.1	107.4
313.15 K	119.2	118	116.8	115.5	114.9
333.15 K	130	129.1	127.7	126	124.7

CCO [ethanol] + CCCCCCC
[2], x2 = 0
Conditions	molar heat capacity at constant pressure [J/K/mol]
100 kPa	119.2
5000 kPa	118
10000 kPa	116.8
15000 kPa	115.5
20000 kPa	114.9

Cc1ccccc1 [toluene] + CCO
molar heat capacity at constant pressure [J/K/mol], [2]
Conditions	x1 = 0.1003	x1 = 0.2007	x1 = 0.2999	x1 = 0.4002	x1 = 0.5	x1 = 0.6001	x1 = 0.7	x1 = 0.8	x1 = 0.9001	x1 = 1
100 kPa	130.1	138.3	146.1	153.2	159.1	163.7	167.7	169.5	168.5	163.5
5000 kPa	128.7	136.6	144.2	151.3	157.1	162	165.3	167.5	167.3	161.3
10000 kPa	127.3	135.5	143.2	150	155.7	160.2	164.1	166.3	165.9	159.9
15000 kPa	126.1	134.4	141.9	148.5	154.3	158.6	162.6	164.9	165.2	158.9
20000 kPa	125.1	133.6	140.9	147.5	153.4	158.1	161.8	164	163.6	157.8

CCO [ethanol] + Cc1ccccc1
[2], x2 = 0
Conditions	molar heat capacity at constant pressure [J/K/mol]
100 kPa	119.2
5000 kPa	118
10000 kPa	116.8
15000 kPa	115.5
20000 kPa	114.9

From the NIST ThermoML archive (doi:10.1016/j.jct.2011.06.019)
